The results in this text go back to PubChem BioAssay AID1645866 (Buhrlage Lab, Dana-Farber Cancer Institute and Novartis …, 2021).

The source made the active and inactive calls.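 Rule for the calls: active = in confirmatory dose-response testing, peak deubiquitinase inhibition of 30% or more; inactive = the rest.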

For the experiment, the target named is Ubiquitin carboxyl-terminal hydrolase 28 (Homo sapiens) (UniProt Q96RU2). The experiment in a line: Ubiquitin-specific peptidase 28 DUB inhibitors, biochemical concentration-dependence assay, validation of primary screening hits (AID 1645866). The conditions noted are these: purified USP28, ubiquitin-rhodamine fluorescence, 30 min.
Ubiquitin carboxyl-terminal hydrolase 28 (Homo sapiens), sequence (Q96RU2 whole entry, looked up): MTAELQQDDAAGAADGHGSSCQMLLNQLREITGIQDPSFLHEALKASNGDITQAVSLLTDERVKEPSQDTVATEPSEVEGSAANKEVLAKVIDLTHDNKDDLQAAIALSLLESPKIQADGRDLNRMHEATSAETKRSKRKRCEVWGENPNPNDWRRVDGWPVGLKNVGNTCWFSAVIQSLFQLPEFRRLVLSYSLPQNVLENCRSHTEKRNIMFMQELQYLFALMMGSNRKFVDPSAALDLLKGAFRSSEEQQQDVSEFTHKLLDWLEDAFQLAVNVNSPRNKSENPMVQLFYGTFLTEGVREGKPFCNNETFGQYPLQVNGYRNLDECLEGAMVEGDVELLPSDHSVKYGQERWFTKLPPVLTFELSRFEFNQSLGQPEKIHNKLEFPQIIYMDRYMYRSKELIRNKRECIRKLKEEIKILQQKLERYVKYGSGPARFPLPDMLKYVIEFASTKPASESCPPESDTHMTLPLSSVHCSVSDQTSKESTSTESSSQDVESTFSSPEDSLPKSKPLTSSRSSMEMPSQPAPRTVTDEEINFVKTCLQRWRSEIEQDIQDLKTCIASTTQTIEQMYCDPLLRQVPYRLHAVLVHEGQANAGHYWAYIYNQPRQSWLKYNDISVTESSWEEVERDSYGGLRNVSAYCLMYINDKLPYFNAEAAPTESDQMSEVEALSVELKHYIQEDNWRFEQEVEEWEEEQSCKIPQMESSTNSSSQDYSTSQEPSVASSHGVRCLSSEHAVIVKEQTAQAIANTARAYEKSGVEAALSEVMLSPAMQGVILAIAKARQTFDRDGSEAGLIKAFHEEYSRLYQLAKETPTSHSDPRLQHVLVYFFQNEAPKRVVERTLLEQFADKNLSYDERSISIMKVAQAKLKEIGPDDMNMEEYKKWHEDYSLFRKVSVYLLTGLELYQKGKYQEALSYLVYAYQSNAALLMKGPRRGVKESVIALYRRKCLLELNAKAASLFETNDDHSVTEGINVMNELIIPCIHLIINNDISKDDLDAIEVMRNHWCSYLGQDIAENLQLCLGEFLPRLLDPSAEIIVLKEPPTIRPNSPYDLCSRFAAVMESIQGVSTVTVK

As a reminder, the IC50 is the concentration needed to halve the response being measured. For the molecule `Clc1cccc(N2CCN(c3ncnc4nc[nH]c34)CC2)c1`, the IC50 is 39.5 µM.
In the case of `CCCc1nc2sc3c(NCCCN4CCOCC4)ncnc3c2c2c1CCC2`, the IC50 is 0.743 µM.
Then `COc1ccc(OC)c(NC(=O)C2=C(C)Nc3ncnn3C2c2ccccc2OCc2ccc(C)cc2)c1` (centres undefined), with 19.9 µM; and `O=C(Nc1cc(-c2cccnc2)no1)c1ccc(F)c(F)c1`, with 10.9 µM; and `COCCNC(=O)c1ccn(-c2ccc3ccc(-c4cnn(C)c4)cn23)n1`, with > 50 µM (inactive).
As for `Cc1ccc2c(c1)[C@]1(C(=O)N2)[C@@H]2C(=O)N(c3cccc(C(F)(F)F)c3)C(=O)[C@@H]2C2CCCN21` (some centres undefined), the IC50 was > 50 µM (inactive).
Consider `CCOC(=O)c1c(C)nc2n(Cc3ccccc3)c3ccccc3n12`, for which the IC50 was 21.7 µM.
Then `N[C@@H](Cc1ccccc1)C(=O)N1CCC2(CC1)CN(C(=O)c1ccc(Cl)cc1)CCO2`, with > 50 µM (inactive); and `O=C(CCCCn1c(=O)[nH]c2ccccc2c1=O)Nc1cccc(Cl)c1`, with 16.7 µM; and `Cc1noc(-c2cc(=O)n(CC(=O)NCc3ccccc3)c3ccccc23)n1`, with 25.1 µM.
For the molecule `O=C(Nc1ccc2c(c1)OCCO2)c1cccc2nc3ccccc3nc12`, the IC50 was 1.99 µM.
As for `CCOC(=O)c1sc2nc(CC(=O)OC)nc(NCc3ccco3)c2c1C`, the IC50 was > 50 µM (inactive).
`CC(=O)c1cccc(NC(=O)c2ccc(N3CCCCC3)nn2)c1`: the IC50 is 32.4 µM.
In the case of `CC(=O)c1ccc(NC(=O)CC2C(=O)Nc3nc4ccccc4n32)cc1` (centres undefined), the IC50 was 27.3 µM.
As for `CCN(CC)c1nc(F)c2c(c1F)S(=O)(=O)CCN2Cc1ccccc1`, the IC50 was > 50 µM (inactive).
For the molecule `CC(C)c1ccc(NC(=O)COC(=O)c2ccc3[nH]c4c(c3c2)CCCC4)cc1`, the IC50 is 31.4 µM.
Consider `c1ccc(-n2nnc(-c3noc(-c4cccnc4)n3)c2-c2ccncc2)cc1`, for which the IC50 was 21 µM.
For `COc1ccc2nc(SCC(=O)Nc3ccc(NC(C)=O)cc3)c(C)cc2c1`, the IC50 is 9.45 µM.
As to `CC[C@H](C)[C@H](NC(=O)[C@H]([C@@H](C)CC)N(C)C(C)=O)C(=O)N[C@H](C(=O)N[C@@H](CC(C)C)C(=O)C1(C)CO1)[C@@H](C)O` (some centres undefined), the IC50 is > 50 µM (inactive).
With `COc1ccc(NC(=O)c2nnn(-c3ccccc3F)c2C)cc1OC`, the IC50 was 2.61 µM.
As to `CCn1c(SCc2cccc(C)c2)nnc1-c1cnccn1`, the IC50 was 22 µM.
Take `COc1ccc(C(=O)Nc2ccccc2C(=O)NCc2ccccc2)cc1`: the IC50 is 37.6 µM.
Take `O=C(COC(=O)c1ccc2ncsc2c1)Nc1ccccc1F`: the IC50 was > 50 µM (inactive).
For `COc1ccc(CC(=O)Nc2cccc(-c3nc4ncccc4o3)c2)cc1OC`, the IC50 was > 50 µM (inactive).
In the case of `CCCc1cc(=O)oc2cc(OCC(=O)NCc3ccc(OC)cc3)ccc12`, the IC50 was 16.6 µM.
As to `COc1ccccc1NS(=O)(=O)c1cccc(NC(=O)CCc2nc3ccccc3s2)c1`, the IC50 was 13.3 µM.
With `O=C(Nc1ccc(F)cc1F)NC1CCN(c2ccccc2)C1=O` (centres undefined), the IC50 is 21.7 µM.
Take `Cc1noc(-c2cccc(=O)n2CC(=O)Nc2ccc(C)c(C)c2)n1`: the IC50 is 17.4 µM.
The figure for `CCN1C(=O)COc2ccc(NC(=O)c3ccc(OCc4nonc4C)cc3)cc21` is 4.85 µM; for `CC[C@H](C)C[C@H]1CC[C@](O)([C@](C)(O)C(=O)N[C@@H]2C(=O)N3NCCC[C@@H]3C(=O)N(O)[C@@H](C)C(=O)NCC(=O)N3NCCC[C@H]3C(=O)N(O)[C@H](C)C(=O)O[C@H]2C(C)C)O[C@@H]1C` it is 1.52 µM; for `CC1(C)C[C@@H](O)[C@]2(C)CC[C@]3(C)C(=CCC4[C@@]5(C)CC[C@H](O)[C@](C)(CO)[C@@H]5CC[C@]43C)[C@@H]2C1` (some centres undefined) it is > 50 µM (inactive).
Consider `COc1ccccc1CNC(=O)c1ccccc1OCc1ccccc1Cl`, for which the IC50 is > 50 µM (inactive).
Consider `O=C(CC1C(=O)Nc2nc(-c3ccccc3)nn21)Nc1cccc2ccccc12` (centres undefined), for which the IC50 was 15 µM.
`Cc1cccc(NC(=O)CSc2ccc(-n3cnc(-c4ccccc4)c3)nn2)c1`: the IC50 was 16.5 µM.
